In the supplement of paper PMC10949913:
Where “and” joins values, the source holds several entries; their conditions need not be identical. Identical values can stand only once.

Columns and labels:
Test in all cases: area under concentration-response curve (viability) (AUC (a.u.)); higher = less active
Conditions in all cases: 48 h
CU-ACC1 = system: CU-ACC1
In short: (§1)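 Library compounds were tested at 11 concentrations against three adrenocortical carcinoma cell lines in 1,536-well plates. CellTiter-Glo luminescence was read after 48 h and normalised per plate to vehicle and empty-well controls. Only inhibitory or non-responding curve classes from fitted concentration-response curves contributed AC50 and area under the curve.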

CU-ACC2 = system: CU-ACC2
In short: as §1

NCI-H295R = system: NCI-H295R
In short: as §1

Row | SMILES | area under concentration-response curve (CU-ACC1) | area under concentration-response curve (CU-ACC2) | area under concentration-response curve (NCI-H295R)
1 | CNc1nc(C)nc(N[C@H]2CCC[C@@H](C(=O)NCc3ccc(C#N)cc3C(F)(F)F)C2)n1 | 497 | 593 | 496
2 | N#Cc1ccnc(N2C(=O)CC[C@H]2C(=O)N(c2cncc(F)c2)C(C(=O)NC2CC(F)(F)C2)c2ccccc2Cl)c1 (stereo partly specified) | 500 | 602 | 578
3 | O=C(NCc1cccc(O)c1)Nc1nc(-c2ccncc2)cs1 | 546 | 582 | 559
4 | O=C(O)CNC(=O)c1nc(Cl)c2ccccc2c1O | 498 | 604 | 529
5 | CCCCCN(CCC12CC3CC(CC(C3)C1)C2)C(=O)NCCCc1ccncc1 | 472 | 519 | 453
6 | C/C=C/C[C@@H](C)C(=O)[C@H]1C(=O)N[C@@H](C(C)C)C(=O)N(C)CC(=O)N(C)[C@@H](CC(C)C)C(=O)N[C@@H](C(C)C)C(=O)N(C)[C@@H](CC(C)C)C(=O)N[C@@H](C)C(=O)N[C@H](C)C(=O)N(C)[C@@H](CC(C)C)C(=O)N(C)[C@@H](CC(C)C)C(=O)N(C)[C@@H](C(C)C)C(=O)N1C | 534 | 633 | 524
7 | COc1ccc([C@@H]2Sc3ccccc3N(CCN(C)C)C(=O)[C@@H]2OC(C)=O)cc1 | 473 | 576 | 533
8 | NC[C@H]1CC[C@H](C(=O)O)CC1 | 497 | 586 | 452
9 | NCC[S+](=O)([O-])O | 495 | 585 | 488
10 | ClC\1=C(/CN2CCCC2=N)NC(=O)NC1=O | 505 | 547 | 486
11 | Clc1ccccc1CN1CCc2sccc2C1 | 510 | 617 | 543
12 | CC(C)(NC(=O)O[C@@H]1CN2CCC1CC2)c1csc(-c2ccc(F)cc2)n1 | 479 | 477 | 480
13 | O=C(Nc1ccccc1)Nc1ccc(-c2ccc(C(=O)[C@@H]3CCC[C@H]3C(=O)O)cc2)cc1 | 481 | 472 | 441
14 | CNC[C@H](O)[C@@H](O)[C@H](O)[C@H](O)CO | 421 | 542 | 547
15 | CCOC(=O)C(C)OC1=CC=CC2=C1\C=C/N(CC(=O)NC3=CC=C4OCCOC4=C3)C2=O (stereo unspecified) | 505 | 602 | 538
16 | CN(CC(=O)N(Cc1ccc(C2CCCCC2)cc1)c1ccc(C(=O)O)c(O)c1)[S+](=O)([O-])c1c(F)c(F)c(F)c(F)c1F | 486 | 558 | 536
17 | CCc1cc(Nc2nccc(-c3c(-c4ccc(OC)c(C(=O)Nc5c(F)cccc5F)c4)nc4ccccn34)n2)c(OC)cc1N1CCC(N2CCN([S+](C)(=O)[O-])CC2)CC1 | 509 | 548 | 485
18 | CCN1\C=C(\C(O)=O)C(=O)C2=C1C=C(N3CCNCC3)C(=C2)F | 356 | 397 | 393
19 | Cc1cc(/C=c2/sc3nc4ccccc4n3c2=O)c(C)n1-c1ccccc1 | 569 | 625 | 549
20 | O=C1Cc2cc(C(=O)NC3C[C@H]4CC[C@@H](C3)N4[S+](=O)([O-])CC3CCN(CCCC(F)(F)F)CC3)c(Cl)cc2N1 (stereo partly specified) | 525 | 611 | 539
21 | COc1ccc(-c2cc(=O)c3c(O)cc(O)cc3o2)cc1O | 452 | 447 | 437
22 | Clc1ccc2c(N3CCN(CCCN4CCN(c5ccnc6cc(Cl)ccc56)CC4)CC3)ccnc2c1 | 433 | 450 | 451
23 | O=C1\C=C(/OC2=C1C=CC=C2C3=CC=CC=C3)N4CCOCC4 | 498 | 550 | 515
24 | CC1=CC/2=C(C=C1C)N(C[C@@H](O)[C@@H](O)[C@@H](O)CO)C/3=N/C(=O)NC(=O)C3=N2 | 481 | 586 | 505

Row | SMILES | area under concentration-response curve (CU-ACC1) | area under concentration-response curve (CU-ACC2) | area under concentration-response curve (NCI-H295R)
25 | Cn1c(=O)c2c(ncn2C)n(C)c1=O | 479 | 533 | 498
26 | Cn1c(=O)c2c(ncn2CC(O)CO)n(C)c1=O (stereo unspecified) | 437 | 531 | 483
27 | Cc1c(F)cc(C(=O)NC2CC2)cc1-c1c(F)cn2c(C(C)(C)C)nnc2c1F | 482 | 507 | 469
28 | CC1=CC2=C(O1)C(=C3OC(=O)\C=C(C)/C3=C2)C | 482 | 581 | 516
29 | CC1(C)CCC(C)(C)c2cc(NC(=O)c3ccc(C(=O)O)cc3)ccc21 | 468 | 495 | 443
30 | C[N]1C=C(C2=C1C=CC=C2)\C3=C(\C(=O)NC3=O)C4=C5CC(CN)CC[N]5C6=C4C=CC=C6 (stereo unspecified) | 517 | 620 | 559
31 | COCCNCCCn1c(C(=O)CF)c(-c2ccc(C)cc2)c2c(N)ncnc21 | 537 | 655 | 581
32 | N[S+](=O)([O-])c1cc2c(cc1Cl)NCN[S+]2(=O)[O-] | 480 | 563 | 430
33 | C[C@]\12CC[C@H](O)CC1=C/CC3C2CC[C@@]\4(C)C3C\C=C4[N]5C=NC6=C5C=CC=C6 (stereo partly specified) | 540 | 516 | 548
34 | CCC/1=C(/NC2=C(C=N[N]2C1=O)C#N)C3=CC=CC=C3C | 550 and 493 | 577 and 487 | 552 and 522
35 | Nc1ncc(C(=O)NC2CN(C(=O)C3CC3)C2)c2ccc(-c3cccc(F)c3)nc12 | 538 | 647 | 574
36 | CNC(=O)Cn1cc(-c2ccc3c(c2)C(F)CC32NC(=O)N(CC(=O)N(Cc3ccc(F)cc3)C(C)C(F)(F)F)C2=O)cn1 (stereo unspecified) | 500 | 546 | 512
37 | Clc1cccc(-c2ccc(-c3nnc(CCCc4ccc5cccnc5n4)o3)cc2)c1 | 547 | 627 | 594
38 | CN(C(=O)CNC(=O)/C=C/c1cccc(Cl)c1)C1CC[S+](=O)([O-])CC1 (stereo unspecified) | 479 | 540 | 465
39 | CN1C[C@@H]2c3ccccc3Oc3ccc(Cl)cc3[C@H]2C1 | 553 | 525 | 554
40 | Nc1nc(N)c2nc(CNc3ccc(C(=O)NC(CCC(=O)O)C(=O)O)cc3)cnc2n1 (stereo unspecified) | 458 | 543 | 515
41 | O=C(O)CCCCN(CCc1ccccc1OCc1ccc(CCc2ccccc2)cc1)Cc1ccc(C(=O)O)cc1 | 471 | 561 | 495
42 | CCCC(CCC)C(=O)[O-] | 445 | 482 | 442
43 | CN(C)NC(=O)CCC(=O)O | 405 | 410 | 397
44 | CN1C(=O)C(=C\C2=C1N=C(NC3=CC=CC(=C3)C(O)=O)N=C2)/C4=C(Cl)C=CC=C4Cl | 515 | 528 | 483
45 | Cc1cc(O)cc2c1[C@]1(C)CC[C@H]3C(C)(C)CCC[C@]3(C)[C@H]1C2 | 53.6 | 190 | 89.9
46 | COc1cc2c(cc1OC)CC(=O)N(CCCN(C)C[C@H]1Cc3cc(OC)c(OC)cc31)CC2 | 486 | 601 | 542
47 | COc1cc2cc(c1Cl)N(C)C(=O)C[C@H](OC(=O)C(C)C)[C@]1(C)O[C@@H]1[C@H](C)[C@@H]1C[C@@](O)(NC(=O)O1)[C@H](OC)/C=C/C=C(\C)C2 | 505 | 440 | 346
